Results: US9255295B2, “Method for evaluating the sensitizing potential of a test compound” (IMMUNOSEARCH, priority 2010, dated 2016)
Read-outs that look alike come from different tables or passages of the source.

What was measured:
[1] = official classification: non-sensitizer, irritant, or sensitizing Extreme/Strong/Moderate/Weak; cited from earlier work
[2] = tested on: genes specific for sensitization (BRAK, CTSS, DAPK2, FABP4, HSP27, IL18, HSP90, IL1R2, TPSAB1, CXCR1, DEFB1, DHFR, EHF, IVL, KRT4, MELANA, NGAL, PDZK1IP1, PI3 …); test: Expression of the other (non-ARE) sensitization-specific genes in EPISKIN reconstructed skin (quantitative RT-PCR); assay type: cell-based, human; details: for BRAK expression / CTSS expression / CXCR1 expression / DAPK2 expression / DEFB1 expression / DHFR expression / EHF expression / FABP4 expression / HSP27 expression / HSP90 expression / IL18 expression / IVL expression / KRT4 expression / MELANA expression / NGAL expression / P13 expression / PDZK1iP1 expression / SERPINB3 expression: compared to the control;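 for CTSS NUMBER OF GENES grade: grade scored against expression in the control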;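 for CXCR1 NUMBER OF GENES grade: grade scored against expression in the control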;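 for DAPK2 NUMBER OF GENES grade: grade scored against expression in the control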
[3] = tested on: ARE gene family (AKR1B10, AKR1C1, AKR1C2, CYP1B1, FTH1P, FTL, G6PD, GCLM, NQO2, SLC7A11, TXNRD1, UGT1A1, UGT1A9, YWHAZ, CD36, CYP1A1, GCLC, HMOX1, NQO1, PSME2 …); details: human, 6 h

Structure (SMILES): N#CCCC(Br)(C#N)CBr (centres unmarked) [2-Bromo-2-(bromomethyl)glutaronitrile]
- Class [1]: S

Structure (SMILES): O=CCCCC=O [Glutaraldehyde]
- Class [1]: S

Structure (SMILES): CC(O)C(=O)O (centres unmarked) [Lactic acid (cys pos), Lactic acid]
- BRAK NUMBER OF GENES grade ([2]; 1%): 0 (if this expression is lower, the grade is 0)
- CTSS NUMBER OF GENES grade ([2]; 1%): 0 (if this expression is lower, the grade is 0)
- CXCR1 NUMBER OF GENES grade ([2]; 1%): 0 (if this expression is lower, the grade is 0)
- DAPK2 NUMBER OF GENES grade ([2]; 1%): 0 (if this expression is lower, the grade is 0)
- DEFB1 NUMBER OF GENES grade ([2]; 1%): 0 (if this expression is lower, the grade is 0)
- DHFR NUMBER OF GENES grade ([2]; 1%): 0 (if this expression is lower, the grade is 0)
- EHF NUMBER OF GENES grade ([2]; 1%): 0 (if this expression is lower, the grade is 0)
- FABP4 NUMBER OF GENES grade ([2]; 1%): 0 (if this expression is lower, the grade is 0)
- HSP27 NUMBER OF GENES grade ([2]; 1%): 0 (if this expression is lower, the grade is 0)
- HSP90 NUMBER OF GENES grade ([2]; 1%): 0 (if this expression is lower, the grade is 0)
- IL18 NUMBER OF GENES grade ([2]; 1%): 0 (if this expression is lower, the grade is 0)
- IVL NUMBER OF GENES grade ([2]; 1%): 0 (if this expression is lower, the grade is 0)
- KRT4 NUMBER OF GENES grade ([2]; 1%): 0 (if this expression is lower, the grade is 0)
- MELANA NUMBER OF GENES grade ([2]; 1%): 0 (if this expression is lower, the grade is 0)
- NGAL NUMBER OF GENES grade ([2]; 1%): 0 (if this expression is lower, the grade is 0)
- P13 NUMBER OF GENES grade ([2]; 1%): 0 (if this expression is lower, the grade is 0)
- PDZK1iP1 NUMBER OF GENES grade ([2]; 1%): 0 (if this expression is lower, the grade is 0)
- SERPINB3 NUMBER OF GENES grade ([2]; 1%): 0 (if this expression is lower, the grade is 0)
- TOTAL SENS (number of genes) ([2]; 1%): 0
- BRAK expression ([2]; 1%): 0.8
- CTSS expression ([2]; 1%): 1.0
- CXCR1 expression ([2]; 1%): 0.7
- DAPK2 expression ([2]; 1%): 1.2
- DEFB1 expression ([2]; 1%): 0.9
- DHFR expression ([2]; 1%): 0.9
- EHF expression ([2]; 1%): 0.9
- FABP4 expression ([2]; 1%): 0.7
- HSP27 expression ([2]; 1%): 1.0
- HSP90 expression ([2]; 1%): 1.0
- IL18 expression ([2]; 1%): 0.9
- IVL expression ([2]; 1%): 1.0
- KRT4 expression ([2]; 1%): 0.9
- MELANA expression ([2]; 1%): 0.7
- NGAL expression ([2]; 1%): 0.9
- P13 expression ([2]; 1%): 0.8
- PDZK1iP1 expression ([2]; 1%): 1.0
- SERPINB3 expression ([2]; 1%): 0.9
- BRAK NUMBER OF GENES grade ([2]; 10%): 0 (if this expression is lower, the grade is 0)
- CTSS NUMBER OF GENES grade ([2]; 10%): 0 (if this expression is lower, the grade is 0)
- CXCR1 NUMBER OF GENES grade ([2]; 10%): 0 (if this expression is lower, the grade is 0)
- DAPK2 NUMBER OF GENES grade ([2]; 10%): 0 (if this expression is lower, the grade is 0)
- DEFB1 NUMBER OF GENES grade ([2]; 10%): 0 (if this expression is lower, the grade is 0)
- DHFR NUMBER OF GENES grade ([2]; 10%): 0 (if this expression is lower, the grade is 0)
- EHF NUMBER OF GENES grade ([2]; 10%): 0 (if this expression is lower, the grade is 0)
- FABP4 NUMBER OF GENES grade ([2]; 10%): 0 (if this expression is lower, the grade is 0)
- HSP27 NUMBER OF GENES grade ([2]; 10%): 0 (if this expression is lower, the grade is 0)
- HSP90 NUMBER OF GENES grade ([2]; 10%): 0 (if this expression is lower, the grade is 0)
- IL18 NUMBER OF GENES grade ([2]; 10%): 0 (if this expression is lower, the grade is 0)
- IVL NUMBER OF GENES grade ([2]; 10%): 0 (if this expression is lower, the grade is 0)
- KRT4 NUMBER OF GENES grade ([2]; 10%): 0 (if this expression is lower, the grade is 0)
- MELANA NUMBER OF GENES grade ([2]; 10%): 0 (if this expression is lower, the grade is 0)
- NGAL NUMBER OF GENES grade ([2]; 10%): 0 (if this expression is lower, the grade is 0)
- P13 NUMBER OF GENES grade ([2]; 10%): 0 (if this expression is lower, the grade is 0)
- PDZK1iP1 NUMBER OF GENES grade ([2]; 10%): 0 (if this expression is lower, the grade is 0)
- SERPINB3 NUMBER OF GENES grade ([2]; 10%): 0 (if this expression is lower, the grade is 0)
- TOTAL SENS (number of genes) ([2]; 10%): 0
- BRAK expression ([2]; 10%): 1.0
- CTSS expression ([2]; 10%): 1.1
- CXCR1 expression ([2]; 10%): 0.7
- DAPK2 expression ([2]; 10%): 1.1
- DEFB1 expression ([2]; 10%): 1.0
- DHFR expression ([2]; 10%): 1.0
- EHF expression ([2]; 10%): 0.9
- FABP4 expression ([2]; 10%): 0.9
- HSP27 expression ([2]; 10%): 0.9
- HSP90 expression ([2]; 10%): 0.9
- IL18 expression ([2]; 10%): 1.0
- IVL expression ([2]; 10%): 0.9
- KRT4 expression ([2]; 10%): 0.8
- MELANA expression ([2]; 10%): 0.8
- NGAL expression ([2]; 10%): 1.0
- P13 expression ([2]; 10%): 0.8
- PDZK1iP1 expression ([2]; 10%): 1.0
- SERPINB3 expression ([2]; 10%): 1.1
- BRAK NUMBER OF GENES grade ([2]; 50%): 0 (if this expression is lower, the grade is 0)
- CTSS NUMBER OF GENES grade ([2]; 50%): 1 (If the expression is greater than 1.3 compared to the control, a grade of 11s given)
- CXCR1 NUMBER OF GENES grade ([2]; 50%): 0 (if this expression is lower, the grade is 0)
- DAPK2 NUMBER OF GENES grade ([2]; 50%): 0 (if this expression is lower, the grade is 0)
- DEFB1 NUMBER OF GENES grade ([2]; 50%): 0 (if this expression is lower, the grade is 0)
- DHFR NUMBER OF GENES grade ([2]; 50%): 0 (if this expression is lower, the grade is 0)
- EHF NUMBER OF GENES grade ([2]; 50%): 0 (if this expression is lower, the grade is 0)
- FABP4 NUMBER OF GENES grade ([2]; 50%): 0 (if this expression is lower, the grade is 0)
- HSP27 NUMBER OF GENES grade ([2]; 50%): 0 (if this expression is lower, the grade is 0)
- HSP90 NUMBER OF GENES grade ([2]; 50%): 0 (if this expression is lower, the grade is 0)
- IL18 NUMBER OF GENES grade ([2]; 50%): 0 (if this expression is lower, the grade is 0)
- IVL NUMBER OF GENES grade ([2]; 50%): 0 (if this expression is lower, the grade is 0)
- KRT4 NUMBER OF GENES grade ([2]; 50%): 0 (if this expression is lower, the grade is 0)
- MELANA NUMBER OF GENES grade ([2]; 50%): 0 (if this expression is lower, the grade is 0)
- NGAL NUMBER OF GENES grade ([2]; 50%): 0 (if this expression is lower, the grade is 0)
- P13 NUMBER OF GENES grade ([2]; 50%): 0 (if this expression is lower, the grade is 0)
- PDZK1iP1 NUMBER OF GENES grade ([2]; 50%): 0 (if this expression is lower, the grade is 0)
- SERPINB3 NUMBER OF GENES grade ([2]; 50%): 0 (if this expression is lower, the grade is 0)
- TOTAL SENS (number of genes) ([2]; 50%): 1
- BRAK expression ([2]; 50%): 0.7
- CTSS expression ([2]; 50%): 1.4
- CXCR1 expression ([2]; 50%): 0.8
- DAPK2 expression ([2]; 50%): 1.1
- DEFB1 expression ([2]; 50%): 1.1
- DHFR expression ([2]; 50%): 0.9
- EHF expression ([2]; 50%): 0.9
- FABP4 expression ([2]; 50%): 0.8
- HSP27 expression ([2]; 50%): 0.8
- HSP90 expression ([2]; 50%): 0.9
- IL18 expression ([2]; 50%): 0.8
- IVL expression ([2]; 50%): 0.9
- KRT4 expression ([2]; 50%): 0.8
- MELANA expression ([2]; 50%): 0.6
- NGAL expression ([2]; 50%): 1.0
- P13 expression ([2]; 50%): 0.9
- PDZK1iP1 expression ([2]; 50%): 1.0
- SERPINB3 expression ([2]; 50%): 1.2
- CD36 expression ([3]; 1 %): 1.1
- S100A8 expression ([3]; 1 %): 0.8
- CD36 expression ([3]; 10 %): 1.1
- S100A8 expression ([3]; 10 %): 1.0
- CD36 expression ([3]; 50 %): 0.9
- S100A8 expression ([3]; 50 %): 1.1
